Test results as given in publication PMC8037182, “Solvothermal Synthesis of Multiple Dihydropyrimidinones at a Time as Inhibitors of Eg5” (Molecules, 2021).

Columns and labels:
T24 cell line = experiment: Cytotoxicity MTS assay, T24 cell line; assay type: cell-based; details: for IC50: MTS assay, 24 h exposure; for OD490 Mean / OD490 Well 1 / OD490 Well 2 / OD490 Well 3: T24 cell line
Procedure: (§1) The positive compounds (IC50 < 100 μM) obtained from the primary Eg5 motor protein ATPase assay were tested for antiproliferative activity in vitro against Caco-2 cell line, Hela cell line, L929 cell line and T24 cell line by performing MTS assay. Cells were introduced into 96-well plates at a density of 1000 cells per well. After 24 h incubation, the cells were exposed with compounds at final concentrations ranging from 0.5 to 100 µM for 24 h. DMSO was used at a final concentration of 0.025% as blank control, monastrol was used as the positive control. Then 20 µL (CellTiter 96® AQueous One Solution Promega, Madison, WI, USA) reagent was added in each well. After 2 h at 37 °C in a 80% humidified, 5% CO2 atmosphere, the absorbance at 490 nm was recorded using a microplate reader (BIO-RAD iMark^TM). The results were obtained in three independent duplicate experiments. The primary data were shown in Supplementary Materials Tables S4–S7. The IC50 values for these compounds were calculated from a non-linear regression graph plotted between the percentage of cell viability and concentration with SPSS17.0 software.

L929 cell line = experiment: Cytotoxicity MTS assay, L929 cell line; assay type: cell-based; details: for OD490 values, Mean / OD490 values, Well 1 / OD490 values, Well 2 / OD490 values, Well 3: L929 cell line; for IC50: MTS assay, 24 h exposure, ordinary fibroblast, not cancer cells
Procedure: as §1

## CCOC(=O)c1[nH]c(C2NC(=O)NC(C)=C2C(=O)Nc2ccccc2OC)c(C(=O)OC)c1C (stereo not shown) [D3]
T24 cell line
  IC50: > 150 µM
T24 cell line; 0.5μM, first assay
  OD490 Mean: 1.8317
  OD490 Well 1: 1.9267
  OD490 Well 2: 1.7284
  OD490 Well 3: 1.8399
T24 cell line; 1μM, first assay
  OD490 Mean: 1.4215
  OD490 Well 1: 1.4512
  OD490 Well 2: 1.4430
  OD490 Well 3: 1.3702
T24 cell line; 10μM, first assay
  OD490 Mean: 1.5897
  OD490 Well 1: 1.3957
  OD490 Well 2: 1.6776
  OD490 Well 3: 1.6957
T24 cell line; 25μM, first assay
  OD490 Mean: 1.4932
  OD490 Well 1: 1.4267
  OD490 Well 2: 1.6194
  OD490 Well 3: 1.4336
T24 cell line; 50μM, first assay
  OD490 Mean: 1.4228
  OD490 Well 1: 1.3624
  OD490 Well 2: 1.4440
  OD490 Well 3: 1.4620
T24 cell line; 100μM, first assay
  OD490 Mean: 1.3750
  OD490 Well 1: 1.3903
  OD490 Well 2: 1.4568
  OD490 Well 3: 1.2780
L929 cell line; 0.5μM, first assay
  OD490 values, Mean: 1.3020
  OD490 values, Well 1: 1.4715
  OD490 values, Well 2: 1.2756
  OD490 values, Well 3: 1.1589
L929 cell line; 1μM, first assay
  OD490 values, Mean: 1.3230
  OD490 values, Well 1: 1.4997
  OD490 values, Well 2: 1.2316
  OD490 values, Well 3: 1.2376
L929 cell line; 10μM, first assay
  OD490 values, Mean: 1.3760
  OD490 values, Well 1: 1.4568
  OD490 values, Well 2: 1.4534
  OD490 values, Well 3: 1.2179
L929 cell line; 25μM, first assay
  OD490 values, Mean: 1.2499
  OD490 values, Well 1: 1.2312
  OD490 values, Well 2: 1.2473
  OD490 values, Well 3: 1.2712
L929 cell line; 50μM, first assay
  OD490 values, Mean: 1.1939
  OD490 values, Well 1: 1.2135
  OD490 values, Well 2: 1.2454
  OD490 values, Well 3: 1.1229
L929 cell line; 100μM, first assay
  OD490 values, Mean: 1.1051
  OD490 values, Well 1: 1.0930
  OD490 values, Well 2: 1.2053
  OD490 values, Well 3: 1.0171
L929 cell line
  IC50: > 150 µM

## CCOC(=O)c1[nH]c(C2NC(=O)NC(C)=C2C(=O)Nc2ccccc2C)c(C(=O)OC)c1C (stereo not shown) [D4]
T24 cell line
  IC50: 129 µM
T24 cell line; 0.5μM, first assay
  OD490 Mean: 1.9335
  OD490 Well 1: 1.4364
  OD490 Well 2: 2.2473
  OD490 Well 3: 2.1169
T24 cell line; 0.5μM, second assay
  OD490 Mean: 1.7407
  OD490 Well 1: 1.6852
  OD490 Well 2: 1.7785
  OD490 Well 3: 1.7585
T24 cell line; 0.5μM, third assay
  OD490 Mean: 1.7395
  OD490 Well 1: 1.7423
  OD490 Well 2: 1.7741
  OD490 Well 3: 1.7022
T24 cell line; 1μM, first assay
  OD490 Mean: 2.0004
  OD490 Well 1: 1.9146
  OD490 Well 2: 1.8237
  OD490 Well 3: 2.2630
T24 cell line; 1μM, second assay
  OD490 Mean: 1.6895
  OD490 Well 1: 1.7235
  OD490 Well 2: 1.6895
  OD490 Well 3: 1.6555
T24 cell line; 1μM, third assay
  OD490 Mean: 1.7159
  OD490 Well 1: 1.7423
  OD490 Well 2: 1.7020
  OD490 Well 3: 1.7033
T24 cell line; 10μM, first assay
  OD490 Mean: 1.7700
  OD490 Well 1: 1.7289
  OD490 Well 2: 1.7432
  OD490 Well 3: 1.8379
T24 cell line; 10μM, second assay
  OD490 Mean: 1.7224
  OD490 Well 1: 1.6895
  OD490 Well 2: 1.7125
  OD490 Well 3: 1.7652
T24 cell line; 10μM, third assay
  OD490 Mean: 1.7024
  OD490 Well 1: 1.6647
  OD490 Well 2: 1.7424
  OD490 Well 3: 1.7000
T24 cell line; 25μM, first assay
  OD490 Mean: 1.7511
  OD490 Well 1: 1.6328
  OD490 Well 2: 1.8078
  OD490 Well 3: 1.8128
T24 cell line; 25μM, second assay
  OD490 Mean: 1.5821
  OD490 Well 1: 1.5660
  OD490 Well 2: 1.5848
  OD490 Well 3: 1.5954
T24 cell line; 25μM, third assay
  OD490 Mean: 1.5535
  OD490 Well 1: 1.5385
  OD490 Well 2: 1.5232
  OD490 Well 3: 1.5987
T24 cell line; 50μM, first assay
  OD490 Mean: 1.6313
  OD490 Well 1: 1.6866
  OD490 Well 2: 1.7561
  OD490 Well 3: 1.4513
T24 cell line; 50μM, second assay
  OD490 Mean: 1.4096
  OD490 Well 1: 1.4425
  OD490 Well 2: 1.4212
  OD490 Well 3: 1.3652
T24 cell line; 50μM, third assay
  OD490 Mean: 1.4169
  OD490 Well 1: 1.4284
  OD490 Well 2: 1.4022
  OD490 Well 3: 1.4202
T24 cell line; 100μM, first assay
  OD490 Mean: 1.4469
  OD490 Well 1: 1.4538
  OD490 Well 2: 1.4557
  OD490 Well 3: 1.4313
T24 cell line; 100μM, second assay
  OD490 Mean: 1.2781
  OD490 Well 1: 1.3325
  OD490 Well 2: 1.2654
  OD490 Well 3: 1.2365
T24 cell line; 100μM, third assay
  OD490 Mean: 1.2819
  OD490 Well 1: 1.2539
  OD490 Well 2: 1.3332
  OD490 Well 3: 1.2585
L929 cell line; 0.5μM, first assay
  OD490 values, Mean: 1.2390
  OD490 values, Well 1: 1.2664
  OD490 values, Well 2: 1.2769
  OD490 values, Well 3: 1.1737
L929 cell line; 0.5μM, second assay
  OD490 values, Mean: 1.6699
  OD490 values, Well 1: 1.5847
  OD490 values, Well 2: 1.7925
  OD490 values, Well 3: 1.6324
L929 cell line; 0.5μM, third assay
  OD490 values, Mean: 1.6193
  OD490 values, Well 1: 1.5741
  OD490 values, Well 2: 1.5987
  OD490 values, Well 3: 1.6852
L929 cell line; 1μM, first assay
  OD490 values, Mean: 1.1804
  OD490 values, Well 1: 1.2290
  OD490 values, Well 2: 1.2817
  OD490 values, Well 3: 1.0306
L929 cell line; 1μM, second assay
  OD490 values, Mean: 1.6792
  OD490 values, Well 1: 1.5848
  OD490 values, Well 2: 1.6985
  OD490 values, Well 3: 1.7542
L929 cell line; 1μM, third assay
  OD490 values, Mean: 1.5459
  OD490 values, Well 1: 1.5698
  OD490 values, Well 2: 1.5478
  OD490 values, Well 3: 1.5202
L929 cell line; 10μM, first assay
  OD490 values, Mean: 1.0446
  OD490 values, Well 1: 1.1408
  OD490 values, Well 2: 0.9532
  OD490 values, Well 3: 1.0397
L929 cell line; 10μM, second assay
  OD490 values, Mean: 1.6098
  OD490 values, Well 1: 1.5562
  OD490 values, Well 2: 1.5879
  OD490 values, Well 3: 1.6852
L929 cell line; 10μM, third assay
  OD490 values, Mean: 1.5291
  OD490 values, Well 1: 1.5364
  OD490 values, Well 2: 1.5879
  OD490 values, Well 3: 1.4630
L929 cell line; 25μM, first assay
  OD490 values, Mean: 0.9627
  OD490 values, Well 1: 0.8216
  OD490 values, Well 2: 0.8395
  OD490 values, Well 3: 1.2269
L929 cell line; 25μM, second assay
  OD490 values, Mean: 1.4236
  OD490 values, Well 1: 1.4545
  OD490 values, Well 2: 1.4879
  OD490 values, Well 3: 1.3285
L929 cell line; 25μM, third assay
  OD490 values, Mean: 1.2968
  OD490 values, Well 1: 1.3325
  OD490 values, Well 2: 1.3214
  OD490 values, Well 3: 1.2365
L929 cell line; 50μM, first assay
  OD490 values, Mean: 0.9261
  OD490 values, Well 1: 0.8106
  OD490 values, Well 2: 0.9635
  OD490 values, Well 3: 1.0043
L929 cell line; 50μM, second assay
  OD490 values, Mean: 1.2976
  OD490 values, Well 1: 1.3201
  OD490 values, Well 2: 1.2240
  OD490 values, Well 3: 1.3487
L929 cell line; 50μM, third assay
  OD490 values, Mean: 1.2105
  OD490 values, Well 1: 1.1145
  OD490 values, Well 2: 1.2301
  OD490 values, Well 3: 1.2869
L929 cell line; 100μM, first assay
  OD490 values, Mean: 0.7075
  OD490 values, Well 1: 0.8384
  OD490 values, Well 2: 0.6461
  OD490 values, Well 3: 0.6379
L929 cell line; 100μM, second assay
  OD490 values, Mean: 0.8731
  OD490 values, Well 1: 0.9062
  OD490 values, Well 2: 0.8662
  OD490 values, Well 3: 0.8469
L929 cell line; 100μM, third assay
  OD490 values, Mean: 0.8397
  OD490 values, Well 1: 0.8652
  OD490 values, Well 2: 0.7214
  OD490 values, Well 3: 0.9325
L929 cell line
  IC50: 94.5 µM
